For one assay, the target named is CAAX prenyl protease 1 (Saccharomyces cerevisiae S288c, UniProt P47154). Description: Ste24 protease inhibitors, dose response, biochemical, S. cerevisiae, plate reader, cherry-pick (AID 488815).
Another assay addresses Trypsin (Sus scrofa, UniProt P00761). The assay can be described thus: porcine trypsin inhibitors, dose response, selectivity assay for Rce1 protease inhibitor project, biochemical, quenched peptide fluorescence, cherry-pick (AID 488789).
The next assay deals with CAAX prenyl protease 2 (Saccharomyces cerevisiae S288c, UniProt Q03530). The class given is biochemical.
Sequence of CAAX prenyl protease 2 (Q03530 whole entry): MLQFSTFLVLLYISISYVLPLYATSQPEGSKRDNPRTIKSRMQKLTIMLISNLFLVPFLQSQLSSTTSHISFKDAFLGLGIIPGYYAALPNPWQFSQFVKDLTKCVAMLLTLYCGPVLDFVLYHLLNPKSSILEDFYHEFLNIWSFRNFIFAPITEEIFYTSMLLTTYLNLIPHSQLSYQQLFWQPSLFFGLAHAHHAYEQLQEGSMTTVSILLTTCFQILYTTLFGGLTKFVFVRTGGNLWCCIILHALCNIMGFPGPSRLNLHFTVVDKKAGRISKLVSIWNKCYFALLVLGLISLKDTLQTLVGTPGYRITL
The target of assay [1] is T1, Kappa-type opioid receptor (Homo sapiens, UniProt P41145). It counts as functional.
T1 sequence (P41145 whole entry): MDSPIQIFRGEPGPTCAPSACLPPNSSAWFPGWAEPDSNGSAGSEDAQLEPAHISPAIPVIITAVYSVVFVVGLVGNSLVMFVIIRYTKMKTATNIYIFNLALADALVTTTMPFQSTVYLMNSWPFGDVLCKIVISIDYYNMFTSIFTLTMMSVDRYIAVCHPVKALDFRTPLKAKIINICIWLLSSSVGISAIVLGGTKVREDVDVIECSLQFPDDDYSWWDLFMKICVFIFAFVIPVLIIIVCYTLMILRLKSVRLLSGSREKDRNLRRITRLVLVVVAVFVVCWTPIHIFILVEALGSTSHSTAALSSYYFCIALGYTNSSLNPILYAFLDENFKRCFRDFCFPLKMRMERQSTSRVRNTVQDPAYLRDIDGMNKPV
The target in assay [2] is T2, Delta-type opioid receptor (Homo sapiens, UniProt P41143). The assay can be described thus: HTS Image-Based Screen for Agonists of the DOR Receptor. [Related pubchem assays (depositor defined):AID1777, AID1786, AID2133]. It counts as functional.
T2 sequence (P41143 whole entry): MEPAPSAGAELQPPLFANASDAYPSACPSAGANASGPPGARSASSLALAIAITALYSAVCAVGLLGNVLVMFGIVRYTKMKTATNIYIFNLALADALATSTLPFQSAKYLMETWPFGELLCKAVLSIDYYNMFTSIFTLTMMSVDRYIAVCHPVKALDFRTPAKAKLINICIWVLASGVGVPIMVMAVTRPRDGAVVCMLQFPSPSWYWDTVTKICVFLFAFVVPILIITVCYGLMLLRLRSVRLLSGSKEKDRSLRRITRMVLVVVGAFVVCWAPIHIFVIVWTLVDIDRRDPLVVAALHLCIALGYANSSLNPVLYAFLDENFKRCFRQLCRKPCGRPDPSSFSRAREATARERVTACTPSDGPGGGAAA
For assay [3], the target named is T1, Kappa-type opioid receptor. The assay can be described thus: SAR analysis of small molecule agonists of the kappa opioid receptor via a luminescent beta-arrestin assay. [Related pubchem assays (depositor defined):AID1777, AID1786, AID1966, AID2133, AID2136, AID2348, AID2352, AID2357, AID2359, AID2370, AID2420, AID2478, AID2491, AID2492, AID2493, AID2497, AID2498, AID2500, AID449737, AID488822, AID488842]. It counts as functional.

The target in assay [4] is T2, Delta-type opioid receptor. The assay can be described thus: DOR agonists, SAR follow-up, image-based (AID 2370). It counts as functional.
Assay [5] addresses T1, Kappa-type opioid receptor. The assay can be described thus: KOR antagonists by imaging, SAR follow-up, image-based (AID 2348). It counts as functional.
Assay [6] deals with T2, Delta-type opioid receptor. The assay can be described thus: DOR antagonists, SAR follow-up, image-based (AID 2357). It counts as functional.
Assay [7] has as its target T3, Mu-type opioid receptor (Homo sapiens, UniProt P35372). Description: MOR antagonists, SAR follow-up, image-based (AID 2420).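 Further: compounds added before stimulation of receptor with agonist DAMGO.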 It counts as functional.
The target in assay [8] is T3, Mu-type opioid receptor. Description: MOR agonists by imaging, SAR follow-up, image-based (AID 2352). The class given is functional.
The target in assay [9] is T1, Kappa-type opioid receptor. The class given is functional. This is another data set of the same source.
Assay [10] deals with T1, Kappa-type opioid receptor. The assay can be described thus: SAR analysis of small molecule agonists of the kappa opioid receptor via a luminescent beta-arrestin assay - Set 3. [Related pubchem assays (depositor defined):AID1777, AID1785, AID1786, AID1966, AID2133, AID2136, AID2284, AID2500]. It counts as functional.
In assay [11] the target is T3, Mu-type opioid receptor. The assay can be described thus: HTS Image-Based Screen for Agonists of the MOR Receptor. [Related pubchem assays (depositor defined):AID1777, AID1785, AID1786, AID2133]. The class given is functional.
For assay [12], the target named is T2, Delta-type opioid receptor. Description: HTS Image-Based Screen for Antagonists of the DOR Receptor. [Related pubchem assays (depositor defined):AID1777, AID1785, AID1786, AID2133]. The class given is functional.

Calls of active or inactive are those of the source.

Data on 2 compounds can be found in ChEMBL document CHEMBL1201862, “PubChem BioAssay data set” (2004).

Broadly, the AC50 is the concentration at which the activity in the assay is half-maximal. One may read the EC50 as the concentration giving half of the maximal effect. As a reminder, the IC50 is the concentration that gives 50% inhibition.

T3 sequence (P35372 whole entry): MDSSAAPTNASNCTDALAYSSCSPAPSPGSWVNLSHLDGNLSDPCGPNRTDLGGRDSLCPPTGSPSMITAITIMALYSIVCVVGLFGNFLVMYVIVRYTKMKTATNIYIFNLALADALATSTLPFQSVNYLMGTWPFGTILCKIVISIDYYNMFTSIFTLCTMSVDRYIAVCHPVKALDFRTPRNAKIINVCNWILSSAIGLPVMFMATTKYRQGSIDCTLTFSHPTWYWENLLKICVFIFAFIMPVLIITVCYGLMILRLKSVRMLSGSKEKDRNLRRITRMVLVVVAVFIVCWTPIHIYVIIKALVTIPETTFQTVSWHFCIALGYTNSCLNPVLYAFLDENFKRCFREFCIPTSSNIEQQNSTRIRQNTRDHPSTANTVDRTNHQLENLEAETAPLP
Sequence of CAAX prenyl protease 1 (P47154 whole entry): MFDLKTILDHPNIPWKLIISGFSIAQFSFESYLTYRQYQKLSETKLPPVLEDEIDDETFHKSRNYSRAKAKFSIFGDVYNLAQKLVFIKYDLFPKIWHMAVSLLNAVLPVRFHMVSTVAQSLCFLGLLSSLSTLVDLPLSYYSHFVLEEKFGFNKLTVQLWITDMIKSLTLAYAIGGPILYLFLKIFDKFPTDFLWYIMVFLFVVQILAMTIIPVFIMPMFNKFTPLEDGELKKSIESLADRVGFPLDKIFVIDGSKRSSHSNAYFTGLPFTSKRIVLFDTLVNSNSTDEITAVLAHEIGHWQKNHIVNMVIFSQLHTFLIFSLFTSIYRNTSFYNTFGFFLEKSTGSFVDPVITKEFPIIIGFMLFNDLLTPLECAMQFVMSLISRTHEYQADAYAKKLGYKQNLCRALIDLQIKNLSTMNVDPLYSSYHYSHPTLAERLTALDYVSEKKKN
Sequence of Trypsin (P00761 whole entry): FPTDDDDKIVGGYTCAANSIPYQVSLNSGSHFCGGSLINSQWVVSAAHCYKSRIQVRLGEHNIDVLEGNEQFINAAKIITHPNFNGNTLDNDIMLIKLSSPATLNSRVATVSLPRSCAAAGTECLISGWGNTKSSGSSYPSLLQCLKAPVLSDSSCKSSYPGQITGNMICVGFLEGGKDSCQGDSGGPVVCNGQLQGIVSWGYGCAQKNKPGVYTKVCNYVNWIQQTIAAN

For `CCCCN1C(=O)/C(=C/Nc2cccnc2Cl)C(=O)N(CCCCl)C1=O`, the figures for the half-maximal activity concentration (AC50) on CAAX prenyl protease 1, at Trypsin and at CAAX prenyl protease 2 were 7.88 µM (active), 47.1 µM (active) and 40.4 µM (active), respectively.

In the case of `CCCCN(Cc1cc2cc(C)ccc2[nH]c1=O)C(=O)c1ccccn1`, the EC50 in [1] was 4.84 µM; in assay [2], > 32 µM (inactive); in [3], 7.69 µM (active); in assay [4] it was > 32 µM (inactive); on Mu-type opioid receptor [8], > 32 µM (inactive); in assay [9] it was 4.95 µM. The values for the EC50 (in assay [10]; on Mu-type opioid receptor [11]) were 8.38 µM (active) and > 32 µM (inactive), respectively. The IC50 (in assay [5]; in assay [6]; on Mu-type opioid receptor [7]; in assay [12]) was > 32 µM (inactive) throughout.
